# Activity calls are given as the source filed them.
# Columns and labels:
# [1] = target: T1, Microphthalmia-associated transcription factor (Homo sapiens, UniProt O75030); experiment: reducers of TRPM1 reporter luminescence, concentration series – cell-based, SK-MEL-5, cherry-picked, set 3, MITF inhibitor project, dose response (AID 493073); assay type: functional;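 note: SK-MEL-5 melanoma cells with luciferase driven by the MITF target TRPM1 promoter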
# T1 sequence (O75030 whole entry): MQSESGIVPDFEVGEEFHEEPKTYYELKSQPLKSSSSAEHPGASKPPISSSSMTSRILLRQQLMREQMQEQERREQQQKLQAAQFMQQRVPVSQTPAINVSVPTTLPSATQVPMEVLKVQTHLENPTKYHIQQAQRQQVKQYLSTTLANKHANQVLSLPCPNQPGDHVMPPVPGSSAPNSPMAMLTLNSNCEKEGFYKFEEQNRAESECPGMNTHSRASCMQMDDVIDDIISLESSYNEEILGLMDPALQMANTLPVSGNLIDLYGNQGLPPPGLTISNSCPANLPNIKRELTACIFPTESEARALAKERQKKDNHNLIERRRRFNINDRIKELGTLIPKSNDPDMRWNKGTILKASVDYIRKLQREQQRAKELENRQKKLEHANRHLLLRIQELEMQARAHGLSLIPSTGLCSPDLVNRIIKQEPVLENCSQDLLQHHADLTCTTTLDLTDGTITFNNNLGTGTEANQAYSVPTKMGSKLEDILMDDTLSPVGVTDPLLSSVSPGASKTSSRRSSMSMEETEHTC
# [2] = target: T2, RNA-binding protein pos-1 (Caenorhabditis elegans, UniProt G5EF15); experiment: disruptors of C. elegans POS-1 RNA interaction – biochemical, fluorescence polarization, dose response (AID 1964);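 note: purified POS-1 fused to maltose binding protein made in E. coli; potency of compounds blocking POS-1 binding to fluorescent RNA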
# T2 sequence (G5EF15 whole entry): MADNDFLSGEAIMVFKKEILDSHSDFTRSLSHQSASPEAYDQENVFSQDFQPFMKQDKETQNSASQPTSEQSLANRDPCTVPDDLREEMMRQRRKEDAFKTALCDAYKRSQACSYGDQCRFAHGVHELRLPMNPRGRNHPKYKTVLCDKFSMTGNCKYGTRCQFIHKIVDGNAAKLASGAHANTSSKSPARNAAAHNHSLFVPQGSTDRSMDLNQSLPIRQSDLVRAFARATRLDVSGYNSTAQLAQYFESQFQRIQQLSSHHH
# [3] = target: T3, Zinc finger protein mex-5 (Caenorhabditis elegans, UniProt Q9XUB2); experiment: potency of MEX-5 RNA-binding blockers – biochemical, C. elegans, fluorescence polarization, dose response (AID 1960)
# T3 sequence (Q9XUB2 whole entry): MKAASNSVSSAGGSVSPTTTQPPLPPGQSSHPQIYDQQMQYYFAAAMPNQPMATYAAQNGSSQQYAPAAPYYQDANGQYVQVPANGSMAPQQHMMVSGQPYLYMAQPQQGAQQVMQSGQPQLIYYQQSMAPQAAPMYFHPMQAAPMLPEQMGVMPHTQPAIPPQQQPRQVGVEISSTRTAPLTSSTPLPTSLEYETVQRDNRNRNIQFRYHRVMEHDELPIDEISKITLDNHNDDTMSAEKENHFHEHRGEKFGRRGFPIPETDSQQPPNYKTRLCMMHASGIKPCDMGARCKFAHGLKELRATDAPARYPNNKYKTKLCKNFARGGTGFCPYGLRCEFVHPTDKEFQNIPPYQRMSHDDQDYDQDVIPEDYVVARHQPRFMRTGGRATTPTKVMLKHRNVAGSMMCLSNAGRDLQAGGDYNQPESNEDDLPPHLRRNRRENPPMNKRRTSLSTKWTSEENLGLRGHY
# [4] = target: Heat shock protein HSP 90-alpha (Homo sapiens, UniProt P07900); assay type: functional, organism-based
# [5] = target: T4, DNA repair protein RAD52 homolog (Homo sapiens, UniProt P43351); assay type: functional, biochemical
# T4 sequence (P43351 whole entry): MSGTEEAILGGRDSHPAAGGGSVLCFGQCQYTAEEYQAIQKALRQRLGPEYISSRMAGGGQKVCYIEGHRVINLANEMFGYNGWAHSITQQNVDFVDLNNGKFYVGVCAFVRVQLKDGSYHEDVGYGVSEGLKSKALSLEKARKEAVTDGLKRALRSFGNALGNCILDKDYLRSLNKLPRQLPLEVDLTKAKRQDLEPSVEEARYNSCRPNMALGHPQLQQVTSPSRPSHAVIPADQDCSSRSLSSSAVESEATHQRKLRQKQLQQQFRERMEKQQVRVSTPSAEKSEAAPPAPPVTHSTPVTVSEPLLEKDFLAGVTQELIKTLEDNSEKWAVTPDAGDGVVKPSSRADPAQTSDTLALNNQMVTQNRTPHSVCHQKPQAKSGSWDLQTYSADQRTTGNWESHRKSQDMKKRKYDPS
# [6] = Luminescence Cell-Based Dose Retest to Confirm Inhibitors of Cancer Stem Cells. [Related pubchem assays (depositor defined):AID2717, AID2721]; assay type: functional; conditions: Homo sapiens
# [7] = intracellular Trypanosoma cruzi inhibitors in host cells – cell-based, plate reader, cherry-pick samples, set 3, dose response (AID 651818); assay type: functional;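 note: compounds incubated with infected cells for about four days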
# Nonstructural protein 1 = Nonstructural protein 1 (Influenza A virus, UniProt Q194T2); assay type: functional, Influenza A virus (A/California/07/2009(H1N1))
# Chain of Nonstructural protein 1 (Q194T2 whole entry): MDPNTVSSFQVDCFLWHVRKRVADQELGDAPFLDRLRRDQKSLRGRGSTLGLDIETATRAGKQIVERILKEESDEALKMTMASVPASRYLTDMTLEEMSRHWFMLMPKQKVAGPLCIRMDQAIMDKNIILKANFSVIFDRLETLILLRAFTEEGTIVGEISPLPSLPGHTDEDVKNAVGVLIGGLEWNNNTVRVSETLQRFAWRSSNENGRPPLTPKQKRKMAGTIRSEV
# INS1 = experiment: INS-1E survival protection against cytokine death – cell-based, luminescence, retest, dose response (AID 449756); assay type: functional; conditions: Rattus norvegicus, INS1;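 note: cell death triggered by IL-1 beta plus TNF-alpha plus IFN-gamma mixture; protective hits raise ATP signal compared with cytokine alone wells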
# [8] = target: FAD-linked sulfhydryl oxidase ALR (Homo sapiens, UniProt P55789); experiment: ALR-catalysed DTT oxidation blockers – biochemical, H2O2 detection, luminescence, cherry-pick, dose response (AID 493248)
# Chain of FAD-linked sulfhydryl oxidase ALR (P55789 whole entry): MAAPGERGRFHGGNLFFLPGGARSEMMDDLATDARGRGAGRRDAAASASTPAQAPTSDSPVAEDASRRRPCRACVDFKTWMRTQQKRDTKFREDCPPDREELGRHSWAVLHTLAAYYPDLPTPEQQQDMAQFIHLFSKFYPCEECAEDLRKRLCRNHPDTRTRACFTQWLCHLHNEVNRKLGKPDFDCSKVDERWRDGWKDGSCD
# P388/ADR = experiment: cells; assay type: functional; conditions: Mus musculus
# P388 = experiment: cells; assay type: functional; conditions: Mus musculus
# [9] = tested on: Streptococcus sp. 'group A'; experiment: Streptococcus pyogenes SK(-)GAS viability under kanamycin – luminescence, BacTiterGlo, confirmation, counter-screen for streptokinase expression inhibitor project, dose response (AID 1900); assay type: functional, organism-based
# Streptokinase A = target: T5, Streptokinase A (Streptococcus pyogenes serotype M1, UniProt P10520); experiment: viability-normalized secreted streptokinase activity reduction – plasminogen activation absorbance, OD405, dose response (AID 1914); assay type: functional, Streptococcus pyogenes M1 GAS;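 note: secreted streptokinase activity via plasminogen activation per viability signal from cell pellet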
# T5 sequence (P10520 whole entry): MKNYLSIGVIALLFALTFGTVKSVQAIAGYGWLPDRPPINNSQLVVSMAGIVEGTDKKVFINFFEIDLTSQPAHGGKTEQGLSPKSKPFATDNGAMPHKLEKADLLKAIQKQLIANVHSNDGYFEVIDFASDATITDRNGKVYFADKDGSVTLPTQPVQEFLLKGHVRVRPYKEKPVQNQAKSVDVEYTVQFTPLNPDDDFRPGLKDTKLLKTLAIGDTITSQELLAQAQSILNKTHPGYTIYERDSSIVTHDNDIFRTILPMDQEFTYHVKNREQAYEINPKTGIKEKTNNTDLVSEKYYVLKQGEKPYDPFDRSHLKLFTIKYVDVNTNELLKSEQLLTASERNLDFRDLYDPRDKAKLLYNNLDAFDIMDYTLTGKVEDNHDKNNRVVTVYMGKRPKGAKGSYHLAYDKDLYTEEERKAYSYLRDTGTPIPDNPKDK
# Streptococcus = experiment: GAS UMAA2166 growth inhibition – luminescence, BacTiterGlo, counter-screen for streptokinase expression inhibitor project, dose response (AID 1915); assay type: functional, organism-based;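 note: potency for reduction of bacterial viability or growth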
# Large T antigen = Large T antigen (Simian virus 40, UniProt P03070); assay type: functional, Betapolyomavirus macacae;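 note: Confirmatory-stage PubChem screen for compounds that inhibit SV40 T antigen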
# Chain of Large T antigen (P03070 whole entry): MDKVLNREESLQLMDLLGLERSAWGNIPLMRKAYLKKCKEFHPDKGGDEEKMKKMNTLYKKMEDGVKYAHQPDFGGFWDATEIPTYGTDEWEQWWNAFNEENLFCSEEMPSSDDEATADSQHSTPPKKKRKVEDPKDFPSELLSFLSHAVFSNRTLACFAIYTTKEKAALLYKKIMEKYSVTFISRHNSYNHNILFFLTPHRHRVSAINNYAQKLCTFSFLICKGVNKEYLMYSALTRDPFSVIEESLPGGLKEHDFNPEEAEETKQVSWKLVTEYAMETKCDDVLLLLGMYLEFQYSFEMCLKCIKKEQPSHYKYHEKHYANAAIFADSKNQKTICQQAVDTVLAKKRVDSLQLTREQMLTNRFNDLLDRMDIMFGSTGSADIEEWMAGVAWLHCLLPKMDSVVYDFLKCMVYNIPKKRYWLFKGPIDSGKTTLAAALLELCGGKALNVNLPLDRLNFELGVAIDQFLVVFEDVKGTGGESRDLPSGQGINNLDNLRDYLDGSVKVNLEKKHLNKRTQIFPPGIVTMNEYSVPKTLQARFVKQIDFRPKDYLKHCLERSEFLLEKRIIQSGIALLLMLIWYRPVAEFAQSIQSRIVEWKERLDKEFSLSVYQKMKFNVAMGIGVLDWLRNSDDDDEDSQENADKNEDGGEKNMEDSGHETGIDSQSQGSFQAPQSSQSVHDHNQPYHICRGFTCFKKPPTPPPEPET
# [10] = target: T6, Rac GTPase-activating protein 1 (Homo sapiens, UniProt Q9H0H5); experiment: blockers of MgcRacGAP-driven Rac1 GTP hydrolysis – biochemical, ADP Hunter fluorescence, primary and confirmatory, confirmation (AID 624330); assay type: functional
# T6 sequence (Q9H0H5 whole entry): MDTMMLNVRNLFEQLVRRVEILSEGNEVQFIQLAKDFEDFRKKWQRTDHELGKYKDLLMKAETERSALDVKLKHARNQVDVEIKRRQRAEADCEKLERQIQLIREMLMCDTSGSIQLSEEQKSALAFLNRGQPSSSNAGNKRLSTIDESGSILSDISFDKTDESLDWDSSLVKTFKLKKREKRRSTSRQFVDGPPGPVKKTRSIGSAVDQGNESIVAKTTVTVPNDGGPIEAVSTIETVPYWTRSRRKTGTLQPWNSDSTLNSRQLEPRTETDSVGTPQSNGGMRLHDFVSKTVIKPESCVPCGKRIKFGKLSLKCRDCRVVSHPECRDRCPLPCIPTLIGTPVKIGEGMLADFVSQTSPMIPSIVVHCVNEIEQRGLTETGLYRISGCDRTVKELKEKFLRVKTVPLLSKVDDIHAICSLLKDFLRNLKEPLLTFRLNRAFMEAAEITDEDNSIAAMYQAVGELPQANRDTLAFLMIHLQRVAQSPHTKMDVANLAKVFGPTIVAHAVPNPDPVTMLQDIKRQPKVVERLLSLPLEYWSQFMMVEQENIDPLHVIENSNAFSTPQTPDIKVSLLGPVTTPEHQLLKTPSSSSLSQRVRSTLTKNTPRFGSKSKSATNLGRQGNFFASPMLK
# [11] = Trypanosoma cruzi growth suppression in host cells – NIH3T3 host cells, beta-gal luminescence, confirmation (AID 2044); assay type: functional, cell-based;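 note: intracellular parasites grown in NIH/3T3 mouse fibroblasts as host cells; luminescent beta-galactosidase reporter signal from transgenic T. cruzi replicating inside host cells; inhibitors lower the luminescence signal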
# [12] = NIH3T3 cell viability loss – ATP luminescence, mouse fibroblasts, counter-screen, dose response (AID 2010); assay type: functional, cell-based;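 note: cells exposed to compound for about 90 hours before reading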
compound,measurement,setting,value
COc1cccc(C(=O)Nc2ccc3c(cc2=O)[C@@H](NC(C)=O)CCc2cc(OC)c(OC)c(OC)c2-3)c1,AC50,[1],8.43 µM (active)
COc1ccc(C2=CC3=C(Br)C(=O)C(C)(OC(=O)c4ccco4)C(=O)C3=CO2)cc1 (stereo not drawn),EC50,[2],> 300 µM (not active)
same,EC50,[3],35.9 µM (active)
same,AC50,[4],4.13 µM (active)
COc1cc2nc(O)c(C(=O)NCCCN3CCOCC3)c(O)c2cc1OC,AC50,[5],15 µM (active)
C[C@H](CO)N1C[C@H](C)[C@@H](CN(C)C(=O)Nc2ccc(C(F)(F)F)cc2)Oc2c(NC(=O)Nc3ccc(C(F)(F)F)cc3)cccc2C1=O,AC50,[6],3.73 µM (active)
same,AC50,[7],7.68 µM (active)
CCCCCCOc1ccc(N2C(=O)CC(N3CCC(C(=O)OCC)CC3)C2=O)cc1 (stereo not drawn),AC50,[4],2.3 µM (active)
CC(C)COC(=O)c1ccc2c(c1O)C(=O)c1ccccc1C2=O,IC50,Nonstructural protein 1,34.6 µM (active)
same,AC50,INS1,10.9 µM (active)
O=C(c1ccc2c(c1)OCO2)N1CCN(c2ccccc2)CC1,AC50,[8],13.9 µM (active)
COc1ccc(C)cc1NC(=O)c1cc2c(CO)cnc(C)c2oc1=N,AC50,[8],7.55 µM (active)
COc1ccc(C(=O)COC(=O)CN2CC(=O)Oc3ccccc32)cc1Br,IC50,Nonstructural protein 1,4.25 µM (active)
CC(C)c1ccc2c(c1)C(=O)NC(C)(C)C2,AC50,[8],3.3 µM (active)
Cc1cc(C(=O)Nc2nnc(C3CCCCC3)s2)no1,AC50,[8],5.82 µM (active)
CC1CCN(C(CC(=O)c2ccccc2)C(=O)c2ccccc2)CC1 (stereo not drawn),AC50,[4],7.7 µM (active)
COc1ccc(-n2nc(C)cc2Nc2ccccc2C(=O)O)cc1,AC50,[8],3.72 µM (active)
CN(C)CCN1CCN(c2cc(-c3cccc(Cl)c3)nc3ccnn23)CC1,AC50,[5],6.97 µM (active)
CCOc1ccc(C(C)=O)cc1Cn1ccsc1=N,AC50,[5],4.87 µM (active)
COC(=O)C12OCC34C(CC5C(C)=CC(=O)C(O)C5(C)C3C(O)C1O)OC(=O)C(OC(=O)CC(C)C)C24 (stereo not drawn),GI50,P388/ADR,0.0216 µM (active)
same,GI50,P388,0.00154 µM (active)
O=C1c2cccc3cc4ccccc4c(c23)C(=O)N1CCNCCNCCNCCN1C(=O)c2cccc3cc4ccccc4c(c23)C1=O,GI50,P388/ADR,< 0.0187 µM (active)
same,GI50,P388,< 0.0146 µM (active)
C[C@H]1CN([C@@H](C)CO)C(=O)c2cccc(NC(=O)Nc3ccc4c(c3)OCO4)c2O[C@@H]1CN(C)Cc1ccc(C(=O)Nc2ccccc2N)cc1,AC50,[7],2.18 µM (active)
C[C@H](CO)N1C[C@H](C)[C@@H](CN(C)S(=O)(=O)c2cn(C)cn2)Oc2c(cccc2N(C)C)C1=O,AC50,[7],15.8 µM (active)
C[C@H]1CN([C@@H](C)CO)C(=O)Cc2cc(NC(=O)NC3CCCCC3)ccc2O[C@H]1CN(C)Cc1ccc(C(=O)Nc2ccccc2N)cc1,AC50,[7],2.97 µM (active)
C[C@@H]1CN([C@H](C)CO)C(=O)Cc2cc(NS(=O)(=O)c3ccc(F)cc3)ccc2O[C@@H]1CN(C)S(=O)(=O)c1ccc(Cl)cc1,AC50,[7],2.31 µM (active)
CN(C)CCCNC(=O)c1ccc(-c2cc3nc(NCc4cccnc4)n(C)c(=O)c3s2)cc1,AC50,[5],13.3 µM (active)
Cc1ccc(N/N=C(\C#N)C(=N)S)c(C)c1,EC50,[9],32.6 µM (active)
same,EC50,Streptokinase A,> 150 µM (not active)
same,EC50,Streptococcus,20.8 µM (active)
same,AC50,[4],1.84 µM (active)
O=C(Cc1ccccc1)NCC(=O)N/N=C/c1ccc([N+](=O)[O-])s1,AC50,[1],16.1 µM (active)
COc1cc(/C=N/NS(=O)(=O)c2ccc(C)c([N+](=O)[O-])c2)ccc1O,IC50,Large T antigen,7.27 µM (active)
same,AC50,[8],0.181 µM (active)
same,IC50,[10],40.9 µM (active)
Cc1nn(-c2ccccc2)c2sc(-c3nnc(S)o3)cc12,EC50,[9],4.28 µM (active)
same,EC50,Streptokinase A,> 150 µM (not active)
same,EC50,Streptococcus,99 µM (active)
same,AC50,[8],2.63 µM (active)
CC(C)(C)C(O)C(Oc1ccc(Cl)cc1)n1cncn1 (stereo not drawn) [TRIADIMENOL],EC50,[11],1.51 µM (active)
same,EC50,[12],> 60 µM (not active)
same,AC50,[4],0.29 µM (active)
